# Measured values published in patent publication US4624950A, “Method for treating atherosclerosis hyperlipidema, lipid deposition on arterial walls, or raising the ratio of high density lipoprotein cholesterol to total cholesterol in serum” (Nissan Chemical Industries Ltd., priority 1983, dated 1986).
# Where two headings read alike, the source gives them in different places.
# Assays:
# [1] = system: emulsion-induced hyperlipidemic rats; assay: Antihyperlipidemic activity in emulsion-induced hyperlipidemic rats (Test 1); format: in vivo, rat (male S.D.); settings: 300 mg/kg/day p.o., 3 days
# Protocol: The daily dose of the compound of the formula I is from 0.01 to 3.0 g, preferably from 0.1 to 1.5 g, for an adult. It is administered from once to three times per day. The dose may of course be varied depending upon the age, the weight or the condition of illness of the patient. Now, the usefulness of the compound of the formula I as an antiatherosclerotic agent will be shown by tests. In the following tests, the fractionation of lipoproteins was conducted by a dextran sulfate-MgCl2 precipitation method.
# (§1) Cholesterol in serum was measured by means of a cholesterol measuring kit (Cholesterol C-Test Wako, manufactured by Wako Junyaku Co., Ltd.), and cholesterol in HDL was measured by means of NC Hi-Set, manufactured by Nippon Chemiphar Co., Ltd. The quantitative analysis of triglyceride was conducted by means of a triglyceride measuring kit (Triglyceride C-II-Test Wako, manufactured by Wako Junyaku Co., Ltd.).
# (§2) Further, the change rate in the following Tables, was calculated by the following equation.
# (§3) Change rate(%)=(A-B/A)×100
# (§4) where A is the amount of serum lipids (mg/dl) of the control group, and B is the amount of serum lipids (mg/dl) of the group to which the therapeutic agent was administered.
# The antihyperlipidemic activity in emulsion-induced hyperlipidemic rats
# Male S.D. rats weighing 80-90 g (4 weeks old) were used. They were divided into groups of 5 to 6 rats each. The test compounds suspended in 0.5% CMC-Na(carboxymethyl cellulose sodium salt) were given to the rats in a daily dose of 4 ml/kg via stomach tube every 10:00 a.m. After 30 min., lipids emulsion having the following composition was orally given to the rats in an amount of 2.5 ml per rat. During the experimental period of 3 days, the rats were fed on a standard commercial diet and water ad libitum. […] The total cholesterol and triglyceride, and HDL cholesterol were measured.
# [2] = system: Escherichia coli (WP2UVrA); settings: up to 5000 μg/Plate, absence or presence of S-9 mix of rat liver
# Protocol: (§5) The mutagenicity was tested by using Escherichia coli (WP2UVrA) and Salmonella (TA98, TA100, TA1535 and TA1538) in the absence or presence of a drug metabolizing enzymes S-9 mix of rat liver.
# [3] = system: Salmonella (TA98, TA100, TA1535 and TA1538); assay: Mutagenicity test, Salmonella (Test 6); settings: up to 5000 μg/Plate, absence or presence of S-9 mix of rat liver
# Protocol: as §5
# [4] = Acute toxicity test (Test 7); settings: mouse, in vivo, mortality after seven days, read-out: Acute toxicity: dose up to which no toxicity was shown
# Protocol: The test compounds suspended in 0.5% CMC-Na were administered p.o. or injected i.p. to male ddY mice. The acute toxicity was dertermined based on the mortality after seven days.
# [5] = system: experimental atherosclerosis in rabbits induced by cholesterol diet; assay: Effect on experimental atherosclerosis in rabbits induced by cholesterol diet (Test 4); format: in vivo, rabbit (male)
# Protocol: The effect of the compound of the formula I on experimental atherosclerosis in rabbits induced by cholesterol diet
# Twenty-five male rabbits weighing 1.8-2.0 kg were used. They were fed with basic chow (Nippon clea, CR-3) for a stabilizing period of 5 days. After this period, they were fed with the chow containing 1% cholesterol, 100 g per head a day for a week (7 days) and plasma cholesterol was measured using a blood sample collected from acuricle vein.
# According to the results of cholesterol values measured, 14 animals of high cholesterol plasma level were selected. They were divided into two groups to have nearly equal means and S.D. values of plasma cholesterol. One group of 7 rabbits was fed with the chow containing 1% cholesterol and another group of 7 rabbits was fed with the chow containing 1% cholesterol and 0.1% compound of the formula I in an amount of 100 g per head a day for 8 weeks.
# Rabbits were sacrificed at the end of 8 weeks. Aortic arch and thoracic aorta were excised, and macroscopical changes were examined using the Sudan III stain method. According to the results of gross observation of the internal surface stained by Sudan III, the ratios of the atherosclerotic plaque area (the area stained by Sudan III) to the whole internal surface area were calculated. The ratio of inhibition of atherosclerosis of the compound of the formula I was obtained by comparing the average value with the value of the control.
# [6] = system: normal rats; assay: Activities against serum lipid, degree of hepatomegaly and GOT/GPT in normal rats (Test 5); format: in vivo, rat (male S.D.); settings: 300 mg/kg/day, seven days
# Protocol: It is administered from once to three times per day. The dose may of course be varied depending upon the age, the weight or the condition of illness of the patient. […] In the following tests, the fractionation of lipoproteins was conducted by a dextran sulfate-MgCl2 precipitation method.
# as §1, §2, §3, §4
# (§6) The activities against serum lipid, the degree of hepatomegaly and the hepatic drug metabolizing systems of normal rats
# (§7) Male S.D. rats (6 weeks old) were divided into groups of 5 rats each. The test compounds suspended in 5% gum arabic were given to the rats once a day for seven days in a daily dose of 300 mg/kg. Then, the rats were fasted for one day, blood samples were taken, and the total cholesterol, triglyceride, HDL-cholesterol in the serum were quantitatively analyzed. Further, the liver weight was measured, and the degree of hepatomegaly was determined by comparing the weight ratio per 100 g of the body weight with that of the control group. Furthermore, GOT and GPT values were measured, and the activities of cytochrome P-450 and glutathione related enzymes were also measured. These values were compared with those of the control groups to investigate any abnormality.
# [7] = system: cytochrome P-450; assay: Effect on cytochrome P-450 / hepatic drug metabolizing systems of normal rats (Test 5); format: in vivo, rat (male S.D.); settings: 300 mg/kg/day, seven days
# Protocol: as §6, §7
# [8] = system: glutathione related enzymes; assay: Effect on glutathione related enzymes of normal rats (Test 5); format: in vivo, rat (male S.D.); settings: 300 mg/kg/day, seven days
# Protocol: as §6, §7
# [9] = 0.1% in 1% cholesterol chow, 8 weeks, vs control
# [10] = 0.1% in 1% cholesterol chow, 100 g per head a day, 8 weeks
structure (smiles),measurement,setting,value
"CN1C(=S)SC(c2ccccc2)N(C)C1c1ccccc1 (centres unmarked) [Compound of the formula I, 3,5-dimethyl-4,6-diphenyl-tetrahydro-2H-1,3,5-thiadiazine-2-thione]","Serum lipid, HDL-Chol",[1],22.1 mg/dL
same,"Serum lipid, TG",[1],97.4 mg/dL
same,"Serum lipid, Total Chol",[1],145 mg/dL
same,"Change rate, HDL-Chol",[1]; vs control,+80.6%
same,"Change rate, TG",[1]; vs control,-36%
same,"Change rate, Total Chol",[1]; vs control,-45.0%
same,Mutagenicity,[2],did not show any mutagenicity
same,Mutagenicity,[3],did not show any mutagenicity
same,NOAEL at 168 h,"[4]; ip, abdominal (i.p.) administration",≥ 4000 mg/kg
same,NOAEL at 168 h,[4]; oral administration,≥ 8000 mg/kg
same,"Ratio of inhibition of atherosclerosis (Ratio of Improvement), Aortic arch",[5]; [9],13.8%
same,"Ratio of inhibition of atherosclerosis (Ratio of Improvement), Thoracic aorta",[5]; [9],67.7%
same,"Ratio of inhibition of atherosclerosis (Ratio of Improvement), Total aorta",[5]; [9],45.3%
same,"Atherosclerotic plaque area stained by Sudan III, Aortic arch",[5]; [10],77.7%
same,"Atherosclerotic plaque area stained by Sudan III, Thoracic aorta",[5]; [10],11.0%
same,"Atherosclerotic plaque area stained by Sudan III, Total aorta",[5]; [10],26.3%
same,Inhibition of experimental atherosclerosis (in words),[5]; 1% cholesterol diet,inhibits experimental atherosclerosis
same,Hepatic insufficiency from GOT and GPT values (in words),[6],No hepatic insufficiency was observed
same,Hepatomegaly (in words),[6],no substantial hepatomegaly
same,LDL-cholesterol reduction (in words),[6],ramarkably reduces LDL-cholesterol
same,"Serum lipid, HDL-Chol",[6],29.2 mg/dL
same,"Serum lipid, TG",[6],37.5 mg/dL
same,"Serum lipid, Total-Chol",[6],39.2 mg/dL
same,"Change rate, HDL-Chol",[6]; vs control,-1.0%
same,"Change rate, TG",[6]; vs control,-21.0%
same,"Change rate, Total-Chol",[6]; vs control,-16.2%
same,Degree of hepatomegaly,[6]; vs control,+7.0%
same,Abnormalities in activity against cytochrome P-450 or other liver microsome drug metabolizing systems (in words),[7],no abnormalities were observed
same,Abnormalities in activity against glutathione related enzymes (in words),[8],no abnormalities were observed
